Assay results reported in patent publication US20080306056A1, “PYRAZOLE-DERIVATIVES AS FACTOR Xa INHIBITORS” (SANOFI-AVENTIS DEUTSCHLAND GMBH, priority 2002, published 2008).

Target: T1, human factor Xa (Homo sapiens, UniProt P00742)
T1 construct: 25 μl human factor Xa (Enzyme Research Laboratories, Inc; South Bend, Ind.); purchased Enzyme Research Laboratories, Inc; South Bend, Ind
Assay: Factor Xa assay (chromogenic, purified enzyme)
Format: biochemical
Conditions: inhibition constant for factor Xa; chromogenic substrate S-2765 140 μM, enzyme 0.5 nM, 25° C., pH 7.8; Ki=IC50/{1+(substrate concentration/Km)}; read-out: Ki(FXa)
In short: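 Human factor Xa (0.5 nM) pre-incubated 10 min with compound in TBS-PEG/DMSO, then S-2765 (140 μM) added; initial hydrolysis rate read at 405 nm, 25°C. IC50 by linear regression of relative rate vs log concentration; Ki = IC50/(1+[S]/Km).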

T1 sequence (P00742 235-488 limits assumed): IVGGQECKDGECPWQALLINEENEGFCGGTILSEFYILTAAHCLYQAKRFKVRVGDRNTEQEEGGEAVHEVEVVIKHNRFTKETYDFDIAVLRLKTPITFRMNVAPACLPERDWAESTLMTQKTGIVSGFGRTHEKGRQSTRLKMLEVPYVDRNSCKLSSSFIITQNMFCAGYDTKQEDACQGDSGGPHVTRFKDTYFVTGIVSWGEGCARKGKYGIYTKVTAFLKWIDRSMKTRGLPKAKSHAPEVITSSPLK
T1 sequence (P00742 41-179 partner limits assumed): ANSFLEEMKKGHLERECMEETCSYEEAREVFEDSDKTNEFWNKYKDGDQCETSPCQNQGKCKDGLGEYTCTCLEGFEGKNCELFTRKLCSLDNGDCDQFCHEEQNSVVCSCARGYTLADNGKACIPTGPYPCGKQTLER

| SMILES | Ki [µM] |
| --- | --- |
| CC(C)N1CCC(NC(=O)c2cc(C(=O)N3CCC(F)(F)CC3)nn2Cc2cc(-c3ccc(Cl)s3)on2)CC1 [Example 71, 2-[5-(5-Chloro-thiophen-2-yl)-isoxazol-3-ylmethyl]-5-(4,4-difluoro-piperidine-1-carbonyl)-2H-pyrazole-3-carboxylic acid (1-isopropyl-piperidin-4-yl)-amide] | 0.184 |
| CC(C)N1CCC(NC(=O)c2cc(C(=O)N3CCOC3=O)nn2Cc2cc(-c3ccc(Cl)s3)on2)CC1 [Example 72, 2-[5-(5-Chloro-thiophen-2-yl)-isoxazol-3-ylmethyl]-5-(2-oxo-oxazolidine-3-carbonyl)-2H-pyrazole-3-carboxylic acid (1-isopropyl-piperidin-4-yl)-amide] | 0.092 |
| CC(C)N1CCC(NC(=O)c2cc(C(=O)NCCN3CCNC3=O)nn2Cc2cc(-c3ccc(Cl)s3)on2)CC1 [Example 73, 1-[5-(5-Chloro-thiophen-2-yl)-isoxazol-3-ylmethyl]-1H-pyrazole-3,5-dicarboxylic acid 5-[(1-isopropyl-piperidin-4-yl)-amide] 3-{[2-(2-oxo-imidazolidin-1-yl)-ethyl]-amide}] | 0.083 |
| CC(C)N1CCC(NC(=O)c2cc(C(=O)NCC(F)(F)F)nn2Cc2cc(-c3ccc(Cl)s3)on2)CC1 [Example 74, 1-[5-(5-Chloro-thiophen-2-yl)-isoxazol-3-ylmethyl]-1H-pyrazole-3,5-dicarboxylic acid 5-[(1-isopropyl-piperidin-4-yl)-amide] 3-[(2,2,2-trifluoro-ethyl)-amide]] | 0.086 |
| CC(C)N1CCC(NC(=O)c2cc(C(=O)NC3CCS(=O)(=O)C3)nn2Cc2cc(-c3ccc(Cl)s3)on2)CC1 (stereo not shown) [Example 75, 1-[5-(5-Chloro-thiophen-2-yl)-isoxazol-3-ylmethyl]-1H-pyrazole-3,5-dicarboxylic acid 3-[(1,1-dioxo-tetrahydro-1-thiophen-3-yl)-amide] 5-[(1-isopropyl-piperidin-4-yl)-amide]] | 0.076 |
| CC(C)N1CCC(NC(=O)c2cc(C(=O)NCCCN3CCCC3=O)nn2Cc2cc(-c3ccc(Cl)s3)on2)CC1 [Example 76, 1-[5-(5-Chloro-thiophen-2-yl)-isoxazol-3-ylmethyl]-1H-pyrazole-3,5-dicarboxylic acid 5-[(1-isopropyl-piperidin-4-yl)-amide] 3-{[3-(2-oxo-pyrrolidin-1-yl)-propyl]-amide}] | 0.083 |
| CC(C)N1CCC(NC(=O)c2cc(C(=O)NC[Si](C)(C)C)nn2Cc2cc(-c3ccc(Cl)s3)on2)CC1 [Example 80, 1-[5-(5-Chloro-thiophen-2-yl)-isoxazol-3-ylmethyl]-1H-pyrazole-3,5-dicarboxylic acid 5-[(1-isopropyl-piperidin-4-yl)-amide] 3-trimethylsilanylmethyl-amide] | 0.149 |
| CC(C)N1CCC(NC(=O)c2cc(C(=O)NCCS(N)(=O)=O)n(Cc3cc(-c4ccc(Cl)s4)on3)n2)CC1 [Example 87, 1-[5-(5-Chloro-thiophen-2-yl)-isoxazol-3-ylmethyl]-1H-pyrazole-3,5-dicarboxylic acid 3-[(1-isopropyl-piperidin-4-yl)-amide] 5-[(2-sulfamoyl-ethyl)-amide]] | 0.181 |
| CC(C)N1CCC(NC(=O)c2cc(C(=O)N(CCO)CCO)nn2Cc2cc(-c3ccc(Cl)s3)on2)CC1 [Example 88, 1-[5-(5-Chloro-thiophen-2-yl)-isoxazol-3-ylmethyl]-1H-pyrazole-3,5-dicarboxylic acid 3-[bis-(2-hydroxy-ethyl)-amide] 5-[(1-isopropyl-piperidin-4-yl)-amide]] | 0.106 |
| CC(C)N1CCC(NC(=O)c2cc(C(=O)NC(CO)(CO)CO)nn2Cc2cc(-c3ccc(Cl)s3)on2)CC1 [Example 89, 1-[5-(5-Chloro-thiophen-2-yl)-isoxazol-3-ylmethyl]-1H-pyrazole-3,5-dicarboxylic acid 3-[(2-hydroxy-1,1-bis-hydroxymethyl-ethyl)-amide] 5-[(1-isopropyl-piperidin-4-yl)-amide]] | 0.192 |

The remaining lines, values ahead:

| Ki [µM] | SMILES |
| --- | --- |
| 0.063 | CC(C)N1CCC(NC(=O)c2cc(C(=O)N3CCC3)nn2Cc2cc(-c3ccc(Cl)s3)on2)CC1 [Example 77, 5-(Azetidine-1-carbonyl)-2-[5-(5-chloro-thiophen-2-yl)-isoxazol-3-ylmethyl]-2H-pyrazole-3-carboxylic acid (1-isopropyl-piperidin-4-yl)-amide] |
| 0.144 | CC(C)N1CCC(NC(=O)c2cc(C(=O)N3CCSC3)nn2Cc2cc(-c3ccc(Cl)s3)on2)CC1 [Example 78, 2-[5-(5-Chloro-thiophen-2-yl)-isoxazol-3-ylmethyl]-5-(thiazolidine-3-carbonyl)-2H-pyrazole-3-carboxylic acid (1-isopropyl-piperidin-4-yl)-amide] |
| 0.08 | CC(C)N1CCC(NC(=O)c2cc(C(=O)NC(C(=O)O)C(F)(F)F)nn2Cc2cc(-c3ccc(Cl)s3)on2)CC1 (stereo not shown) [Example 79, 2-{[1-[5-(5-Chloro-thiophen-2-yl)-isoxazol-3-ylmethyl]-5-(1-isopropyl-piperidin-4-ylcarbamoyl)-1H-pyrazole-3-carbonyl]-amino}-3,3,3-trifluoro-propionic acid] |
| 0.142 | CC(C)N1CCC(NC(=O)c2cc(C(=O)N3CCC(N4CCCC4=O)CC3)nn2Cc2cc(-c3ccc(Cl)s3)on2)CC1 [Example 81, 2-[5-(5-Chloro-thiophen-2-yl)-isoxazol-3-ylmethyl]-5-[4-(2-oxo-pyrrolidin-1-yl)-piperidine-1-carbonyl]-2H-pyrazole-3-carboxylic acid (1-isopropyl-piperidin-4-yl)-amide] |
| 0.184 | CC(C)N1CCC(NC(=O)c2cc(C(=O)NS(C)(=O)=O)nn2Cc2cc(-c3ccc(Cl)s3)on2)CC1 [Example 82, 2-[5-(5-Chloro-thiophen-2-yl)-isoxazol-3-ylmethyl]-5-methanesulfonylaminocarbonyl-2H-pyrazole-3-carboxylic acid (1-isopropyl-piperidin-4-yl)-amide] |
| 0.104 | CC(C)N1CCC(NC(=O)c2cc(C(=O)N3CC(O)C3)nn2Cc2cc(-c3ccc(Cl)s3)on2)CC1 [Example 83, 2-[5-(5-Chloro-thiophen-2-yl)-isoxazol-3-ylmethyl]-5-(3-hydroxy-azetidine-1-carbonyl)-2H-pyrazole-3-carboxylic acid (1-isopropyl-piperidin-4-yl)-amide] |
| 0.042 | CC(C)N1CCC(NC(=O)c2cc(-c3ccco3)n(Cc3cc(-c4ccc(Cl)s4)on3)n2)CC1 [Example 84, 1-[5-(5-Chloro-thiophen-2-yl)-isoxazol-3-ylmethyl]-5-furan-2-yl-1H-pyrazole-3-carboxylic acid (1-isopropyl-piperidin-4-yl)-amide] |
| 0.185 | CC(C)N1CCC(NC(=O)c2cc(C(=O)O)n(Cc3cc(-c4ccc(Cl)s4)on3)n2)CC1 [Example 85, 2-[5-(5-Chloro-thiophen-2-yl)-isoxazol-3-ylmethyl]-5-(1-isopropyl-piperidin-4-ylcarbamoyl)-2H-pyrazole-3-carboxylic acid] |
| 0.142 | CC(C)N1CCC(NC(=O)c2cc(C(=O)N3CCC3)n(Cc3cc(-c4ccc(Cl)s4)on3)n2)CC1 [Example 86, 5-(Azetidine-1-carbonyl)-1-[5-(5-chloro-thiophen-2-yl)-isoxazol-3-ylmethyl]-1H-pyrazole-3-carboxylic acid (1-isopropyl-piperidin-4-yl)-amide] |
